Measurements reported in US9463174B2, “Pharmaceutical composition for the treatment of type-1 diabetes” (priority 2008, dated 2016).
Entries after “also recorded” stand apart in the source; their conditions may differ.

Key:
[1] = system: established diabetic hyperglycemic NOD mice; assay: Treatment of established diabetes in NOD mice (GABA alone or GABA plus Ex4); type: in vivo
Description: (§1) The techniques used for the in vivo and in vitro studies in this embodiment of the disclosure are also described. CD1 mice (Charles River Laboratories, St Constant, Canada), NOD mice and transgenic TCR NOD mice (Jackson Laboratory, USA) were housed under a controlled temperature and a 12-h light/12-h dark cycle in the St. Michael's Hospital Animal facility with free access to food (normal rodent chow) and water, except where noted. All procedures were conducted according to protocols and guidelines approved by the Canadian Council of Animal Care and the St. Michael's Hospital Animal Care committee. Mice were treated with GABA by daily intraperitoneal (i.p.) injection of 20·g GABA per mouse to reach ˜200 μM circulation concentration and PBS as control. The daily treatment is continuously conducted during 60-day experimental period. One wk after the GABA and PBS treatment, diabetes was induced in both groups by i.p.-injection of low-dose streptozotocin (STZ, Sigma Chemical Co., St. Louis, Mo. 40 mg/kg body weight) for 5 consecutive days. The development of hyperglycemia was monitored by measuring blood glucose from the tail vein every third day following STZ injections using an Ascensia ELITE® XL glucose meter. For some studies, overtly diabetic mice induced by STZ and without GABA treatment were divided into two groups: one group started receiving daily i.p. injection of 20·g GABA whereas other group received only PBS. The treatment was continued for 75 days. The handling of the NOD mice were similar to those CD1 mice except the STZ injection. The NOD mice have a susceptibility to spontaneous development of autoimmune T1D. The TCR transgenic 8.3-NOD mice have a markedly accelerated disease (J. Vergdaguer et al, 1997 J Exp Med. 186(10):1663-76).
(§2) Mice were housed in metabolic cages prior to initiation of GABA and PBS treatment and before termination of experiments. Food intake, water consumption and urine output were measured. To determine the fat distribution, three intra-abdominal fat pads retroperitoneal, mesenteric and epididymal were dissected and weighed. Subcutaneous fat was also analyzed.
All data are presented as mean±SEM. Statistic analysis was performed using Student's t-test or analysis of variance (ANOVA) with ‘n−1’ post hoc custom hypotheses tests, as appropriate, with the SAS software (Statistical Analysis Systems, Cary, N.C.) or the GraphPad Prism 3.0 program (GraphPad Software Inc., San Diego, Calif.). The incidence of diabetes was plotted using the Kaplan-Meier method and statistical comparisons made with the log-rank test. The significance of differences in insulitis scores was determined with the Chi-squared test. The differences between groups in the in vitro proliferation and cytokine release assays were determined by analysis of variance (ANOVA). Significance was assumed at p<0.05.

[2] = system: established diabetic MLDS-mice; assay: Reversal of well established diabetes in MLDS-mice by daily GABA injection; type: in vivo
Description: To investigate if GABA can reverse diabetes, daily GABA injection was started in well established diabetes in MLDS-mice (blood glucose>30 mM).
as §1
Groups of mice were subject to a glucose tolerance test (IPGTT) before treatment (day 0), one, three, and five weeks after administration and the day prior termination. For IPGTT, mice were fasted overnight for 15 h, and were given 1.5 g glucose/kg body weight via i.p.-injection. Blood was drawn from the tail vein and blood glucose was measured at 0, 10, 20, 30, 60, 90, and 120 min after glucose administration.
as §2
Blood samples (200 μL) were collected from the saphenous vein at time as indicated and at the termination of experiments via cardiac puncture (1 mL) for measurement of insulin, glucagon, and cytokine profiles. Serum was collected by centrifugation and stored at −80° C. until use. Insulin and glucagon concentration in serum samples were determined using insulin ELISA kit (Crystal Chem., Chicago, Ill., USA) and glucagon RIA kit (Linco Research, St. Louis, Miss., USA). Circulating GLP-1 levels were determined using GLP-1 RIA kit (Linco Research, St. Louis, Miss., USA). Cytokine concentration in the serum samples was determined using kit Multiplex Bead-based Cytokine assay (BioRed, Canada).
Pancreas harvesting and tissue processing were performed as described previously (Wang Q, Brubaker P L 2002 Diabetologia. 45(9):1263-73). Briefly, after cardiac puncture under anesthesia, a midlaparotomy was performed and the pancreas was immediately dissected from surrounding tissues, cleared of fat and lymph nodes, blotted, weighed, and placed in a formaldehyde-acetic acid solution. The procedure from completion of cardiac puncture to placement of tissue in fixative was completed within 5 min. After overnight fixation, the pancreas was washed in cold running water, cut into 10-12 segments. […]

INS-1 cells = assay: Insulin secretion from INS-1 cells; type: cell-based; conditions: dose dependent
[3] = day 74 after GABA daily administration

## NCCCC(=O)O [GABA, gamma-aminobutyric acid]
[1]; GABA alone
  time for which lower blood glucose levels were maintained: about two
[1]; GABA vs PBS, after onset of hyperglycemia
  blood glucose levels: significantly reduced blood glucose levels
[1]; GABA-treated group
  sickness: no obvious sickness was developed
[1]; GABA-treated vs PBS
  diabetic symptoms (metabolic studies): significantly lessened
[1]; after onset of diabetic hyperglycemia, combination determined at two weeks after treatment
  reversal of diabetic hyperglycemia / remission: transient effect; also recorded: not able to achieve a full remission; also recorded: not effective in completely reversing diabetic hyperglycemia
[1]; diabetes when blood glucose ≧12 mM, GABA 20·g mouse, Ex4 1 nmol/kg, therapies PBS, GABA alone, GABA plus Ex4
  incidence of diabetes: significantly lower
[1]; established diabetic NOD mice
  feces: reduced
  food intake: reduced
  urine: reduced
  water consumption: reduced
[2]; 7th day
  glucose tolerance (IPGTT) at 7th days after GABA injections: significantly improved; also recorded: improved glucose tolerance
[2]; daily GABA started at blood glucose>30 mM
  blood glucose / diabetic hyperglycemia, course: started to decline only a few days after GABA injection; also recorded: reverses MLDS-induced diabetic hyperglycemia; also recorded: completely reversed diabetic hyperglycemia
[2]; [3]
  blood glucose levels at day 74: closed to the normal range
  glucose tolerance at day 74: almost identical to control normal mice; also recorded: improved glucose tolerance
[2]; established diabetic MLDS mice
  metabolic conditions (metabolic studies): normalized metabolic conditions; also recorded: normalized metabolic status
[2]; including two weeks and eight weeks after GABA injections
  glucose tolerance at all time points examined: steadily improves glucose tolerance
[2]; islet histochemistry
  islet morphology: almost normal islet morphology
  lymphocytes in the islets: few lymphocytes were seen
[2]; vs non-treated MLDS-mice
  alpha-cell mass: reduced alpha-cell mass
  beta-cell mass: significant enlarged beta-cell mass; also recorded: significantly restored beta-cell mass
  circulating glucagon: reduced circulating glucagon levels
  circulating insulin: elevated circulating insulin
  ratio of insulin to glucagon: largely increased ratio of insulin to glucagon; also recorded: significantly increased
INS-1 cells
  insulin secretion from INS-1 cells: stimulated insulin secretion; also recorded: dose-dependently increases insulin secretion
